# Measurements published in patent publication US20190017067A1, “[…] PLANTS HAVING MODIFIED 5-ENOLPYRUVYLSHIKIMATE-3-PHOSPHATE SYNTHASE GENE REGULATION” (Regents of the University of Minnesota, priority 2016, published 2019).
# Entries after “also recorded” stand apart in the source; their conditions may differ.
# Experiments:
# Type in all cases: in vivo, cassava (Manihot esculenta)
# [1] = tested on: cassava plants edited with the H056 vector (double 35s promoter driving the TIPA enzyme); assay: Greenhouse glyphosate challenge of gene-edited plants; conditions: H056 edited event; 50 mg active ingredient per plant; assay as for FIG. 6; compared with H004 event
# Procedure: (§1) Plants transgenic for 2×35S and native EPSPS promoter expression cassettes were established in the greenhouse following procedures described elsewhere (Taylor et al., 2012 Tropical Plant Biology, 5: 127-139; and Chauhan et al., 2015 Plant Cell Tissue and Organ Culture 121: 591-603). Glyphosate 5.4 was prepared in a solution containing Surface surfactant and applied to leaves of 4-5 week old plants. Glyphosate was applied at a rate of 50 mg active ingredient per plant in a dropwise manner to the youngest 1-2 fully expanded leaves. Plants were grown on the greenhouse bench under conditions described elsewhere (Taylor et al., 2012 Tropical Plant Biology, 5: 127-139; and Chauhan et al., 2015 Plant Cell Tissue and Organ Culture 121: 591-603). Three times per week plants were scored visually on a 1-7 scale for damaged caused by the glyphosate application, where 1=no damage and 7=death.
# Vectors containing gene editing reagents described in Example 8 were introduced into cassava callus via Agrobacterium transformation (for example, SEQ ID NOs: 11-14). The vectors were designed to repair the EPSPS promoter excision event either by HR or NHEJ from a standard T-DNA (H055; SEQ ID NO: 11), by HR only from a standard T-DNA (H056; SEQ ID NO: 12), or by HR only from a geminivirus replicon (H060; SEQ ID NO: 14). […]
# [2] = tested on: WT non-transgenic cassava plant (susceptible control); assay: Greenhouse glyphosate challenge, phenotype; conditions: 50 mg active ingredient per plant, 21 days after application (FIG. 7)
# Procedure: as §1
# [3] = tested on: shoots of transgenic events expressing high levels of the T102I/P106A (TIPA) enzyme; assay: In vitro rooting test on glyphosate-containing media; conditions: media containing 0.05 mM glyphosate; compared to events expressing the gene variant at lower levels; p=0.00
# Excerpt: Gene models are shown in FIG. 2, and indicated as follows: H001, WT EPSPS driven by the TME7 EPSPS promoter; H002, T102I/P106A EPSPS driven by the TME7 EPSPS promoter; H003, WT EPSPS driven by the 2×35s promoter; H004, T102I/P106A EPSPS driven by the 2×35s promoter.
# (§2) Plantlets were regenerated from five independent transformation events with each gene model vector. Apical stem cuttings approximately 1.5 cm in length were excised from in vitro shoot cultures of transgenic plant lines and cultured on Murashige and Skoog basal media supplemented with 0.05 mM glyphosate. A total of five Petri dishes were established per transgenic event with three plantlets cultured in each dish.
# (§3) Plants were monitored for a period of three weeks. The number of roots formed, length of roots, shoot vigor, and overall plant health were recorded at weekly intervals.
# [4] = tested on: cassava plants transgenic for H063 (RB1 promoter driving the TIPA EPSPS sequence); assay: Greenhouse glyphosate challenge, visual damage score; conditions: two independent lines, assay as for FIG. 6 (50 mg active ingredient per plant; 1=no damage, 7=plant death)
# Procedure: as §1
# (§4) To test the suitability of the two best promoter candidates for driving EPSPS expression, the RB1 and DFP promoters were used to drive expression of TIPA gene models (as shown in FIG. 12) transformed into cassava as described for the other gene models in Example 2. Independent lines were challenged with glyphosate as described for the other gene models in Example 6.
# [5] = tested on: cassava plants transgenic for H064 (DFP promoter driving the TIPA EPSPS sequence); assay: as above; conditions: four independent lines, assay as for FIG. 6 (50 mg active ingredient per plant; 1=no damage, 7=plant death)
# Procedure: as §1, §4
# [6] = tested on: cassava plants transgenic for H009 (EPSPS promoter driving the GAAT (G101A/A192T) EPSPS sequence); assay: as above; conditions: 50 mg active ingredient per plant applied dropwise to leaves of 4-5 week old plants, scored three times weekly, 1=no damage, 7=plant death
# Procedure: as §1
# [7] = tested on: cassava plants transgenic for H010 (double 35S promoter driving the GAAT EPSPS sequence); assay: as above; conditions: 50 mg active ingredient per plant applied dropwise to leaves of 4-5 week old plants, scored three times weekly, 1=no damage, 7=plant death
# Procedure: as §1
# [8] = tested on: cassava plants transgenic for H013 (EPSPS promoter driving the TIPI (T102I/P106I) EPSPS sequence); assay: as above; conditions: 50 mg active ingredient per plant applied dropwise to leaves of 4-5 week old plants, scored three times weekly, 1=no damage, 7=plant death
# Procedure: as §1
# [9] = tested on: cassava plants transgenic for H014 (double 35S promoter driving the TIPI EPSPS sequence); assay: as above; conditions: 50 mg active ingredient per plant applied dropwise to leaves of 4-5 week old plants, scored three times weekly, 1=no damage, 7=plant death
# Procedure: as §1
# [10] = tested on: non-transgenic cassava stem cuttings; assay: In vitro rooting test on glyphosate-containing media; conditions: glyphosate added to the medium at 0.05 mM
# Procedure: Experiments were conducted to access the effects of glyphosate on in vitro rooting by culturing non transgenic shoots on media containing different concentrations of glyphosate ranging from 0.001 mM to 1.0 mM.
# as §2, §3
compound,measurement,setting,value
O=C(O)CNCP(=O)(O)O [glyphosate],glyphosate tolerance of edited plants (damage over time),[1],equivalent to the best H004 event recovered; also recorded: equivalent to performance of the best H004
same,phenotype after herbicide challenge,[2],complete killing
same,number and length of roots formed,[3],more and longer roots
same,"average damage to the shoots, scale of 1-7",[4],3-4
same,"average damage to the shoots, scale of 1-7",[5],around 4
same,"average damage to the shoots, scale of 1-7",[6],4-6.5
same,"average damage to the shoots, scale of 1-7",[7],3-4
same,"average damage to the shoots, scale of 1-7",[8],4-5.5
same,"average damage to the shoots, scale of 1-7",[9],1-3.5
same,effect on in vitro rooting and shoots,[10],Inhibited root formation and shoot death
